Experimental data taken from US4843070A, “Substituted thiazetoquinoline-3-carboxylic acids and pharmaceutically acceptable salts thereof” (priority 1986, dated 1989).
≈ marks a conversion by molar mass, not a printed value. Like-named read-outs stand apart in the source and are kept apart here.

Columns and labels:
E. coli KC-14 [1] = test: Therapeutic effect on infection in mice, E. coli KC-14; assay type: in vivo, ddY-strain male mice; settings: Escherichia coli, KC14, po, 168 h
Procedure: (§1) Test Method: Escherichia coli KC-14 and Psudomonas aeruginosa E-2 were suspended in 4% mucin and 0.25 ml of it was inoculated into peritoneal cavity of ddY-strain male mice (body weight about 20 g; 4 weeks age; 10 mice per group). The numbers of the inoculated bacteria were 5.1×10^4 CFU/mouse and 7.5×10^4 CFU/mouse for E. coli and P. aeruginosa, respectively. The drug was administered orally once 2 hours after the infection of the bacteria and, out of the survival rate after one week, the ED50 values were calculated by a Behrens-Karber method. As controls, ofloxacin and enoxacin were used.
(§2) Bacteria used for calculating ED50 were E. coli KC-14 for (1) and P. aeruginosa E-2 for (2). The compounds (1) to (7) of the present invention designated in Table 2 are as follows.

S. marcescens IFO 3736 = test: MIC by agar plate dilution method, S. marcescens IFO 3736; assay type: cell-based; settings: Serratia marcescens, IFO3736, inoculum 10^6, 37° C., 18 hours, read-out: minimum inhibitory concentration (MIC)
Procedure: (§3) Test method: The MIC was measured by an agar plate dilution method in accordance with a standard method of Japan Chemotherapeutic Society (cf. Nippon Kagaku Ryoho Gakkaishi, 29(1), 76-79, 1981). Thus, the organisms incubated at 37° C. for 18 hours using sensitivity test broth (Nissei) was diluted to 10^6 CFU/ml using the same broth. […] As a control, enoxacin and ofloxacin were used in Tests 1 and 2, respectively.
(§4) The numbers of the inoculated bacteria were 10^6 in all cases and the unit of the MIC was micrograms/ml.

B. subtilis ATCC 6633 = test: MIC by agar plate dilution method, B. subtilis ATCC 6633; assay type: cell-based; settings: Bacillus subtilis, ATCC6633, B. subtilis ATCC 6633, inoculum 10^6, 37° C., 18 hours, read-out: minimum inhibitory concentration (MIC)
Procedure: as §3, §4

P. aeruginosa E-2 [2] = test: Therapeutic effect on infection in mice, P. aeruginosa E-2; assay type: in vivo, ddY-strain male mice; settings: Pseudomonas aeruginosa, E2, po, 168 h
Procedure: as §1, §2

Proteus mirabilis 181 = test: MIC by agar plate dilution method, Proteus mirabilis 181; assay type: cell-based; settings: Test 2; Proteus mirabilis 181; inoculum 10^6; 37° C., 18 hours; read-out: minimum inhibitory concentration (MIC)
Procedure: as §3, §4

P. aeruginosa E-2 [3] = test: MIC by agar plate dilution method, P. aeruginosa E-2; assay type: cell-based; settings: Pseudomonas aeruginosa, E2, P. aeruginosa E-2, inoculum 10^6, 37° C., 18 hours, read-out: minimum inhibitory concentration (MIC)
Procedure: as §3, §4

S. aureus 209-P JC = test: MIC by agar plate dilution method, S. aureus 209-P JC; assay type: cell-based; settings: Staphylococcus aureus, S. aureus 209-P JC, inoculum 10^6, 37° C., 18 hours, read-out: minimum inhibitory concentration (MIC)
Procedure: as §3, §4

M. luteus ATCC 9341 = test: MIC by agar plate dilution method, M. luteus ATCC 9341; assay type: cell-based; settings: Micrococcus luteus, ATCC9341, inoculum 10^6, 37° C., 18 hours, read-out: minimum inhibitory concentration (MIC)
Procedure: as §3, §4

[4] = test system: infections caused by Gram positive bacteria and Pseudomonas aeruginosa (chronic); settings: background statement; cited from earlier work
E. coli NIHJ JC-2 = test: MIC by agar plate dilution method, E. coli NIHJ JC-2; assay type: cell-based; settings: Escherichia coli, NIHJJC2, E. coli NIHJ JC-2, inoculum 10^6, 37° C., 18 hours, read-out: minimum inhibitory concentration (MIC)
Procedure: as §3, §4

S. epidermidis = test: MIC by agar plate dilution method, S. epidermidis; assay type: cell-based; settings: Staphylococcus epidermidis, Test 2, inoculum 10^6, 37° C., 18 hours, read-out: minimum inhibitory concentration (MIC)
Procedure: as §3, §4

K. pneumoniae K-1966 = test: MIC by agar plate dilution method, K. pneumoniae K-1966; assay type: cell-based; settings: Klebsiella pneumoniae, K1966, K. pneumoniae K-1966, inoculum 10^6, 37° C., 18 hours, read-out: minimum inhibitory concentration (MIC)
Procedure: as §3, §4

S. flexneri = test: MIC by agar plate dilution method, S. flexneri; assay type: cell-based; settings: Shigella flexneri, 18 hours, read-out: minimum inhibitory concentration (MIC)
Procedure: as §3, §4

A. calcoaceticus 54 = test: MIC by agar plate dilution method, A. calcoaceticus 54; assay type: cell-based; settings: Acinetobacter calcoaceticus; Test 1; A. calcoaceticus 54; inoculum 10^6; 37° C., 18 hours; read-out: minimum inhibitory concentration (MIC)
Procedure: as §3, §4

E. coli KC-14 [5] = test: MIC by agar plate dilution method, E. coli KC-14; assay type: cell-based; settings: Escherichia coli, KC14; Test 1; E. coli KC-14; inoculum 10^6; 37° C., 18 hours; read-out: minimum inhibitory concentration (MIC)
Procedure: as §3, §4

P. vulgaris HX-19 = test: MIC by agar plate dilution method, P. vulgaris HX-19; assay type: cell-based; settings: Proteus vulgaris, HX19, Test 1, inoculum 10^6, 37° C., 18 hours, read-out: minimum inhibitory concentration (MIC)
Procedure: as §3, §4

S. aureus Smith = test: MIC by agar plate dilution method, S. aureus Smith; assay type: cell-based; settings: Staphylococcus aureus; Test 1; S. aureus Smith; inoculum 10^6; 37° C., 18 hours; read-out: minimum inhibitory concentration (MIC)
Procedure: as §3, §4

E. cloacae No. 1 = test: MIC by agar plate dilution method, E. cloacae No. 1; assay type: cell-based; settings: Enterobacter cloacae; Test 1; E. cloacae No. 1; inoculum 10^6; 37° C., 18 hours; read-out: minimum inhibitory concentration (MIC)
Procedure: as §3, §4

in vivo = settings: mouse, oral administration, ddY-strain male mice, 2 weeks
Description: The result of oral administration to ddY-strain male mice (7 weeks age; body weight ca. 35 g; 3 mice per group) for 2 weeks was given.

[6] = E. coli KC-14, 5.1×10^4 CFU/mouse i.p., drug orally once 2 hours after infection, survival after one week, read-out: ED50
[7] = P. aeruginosa E-2, 7.5×10^4 CFU/mouse i.p., drug orally once 2 hours after infection, survival after one week, read-out: ED50

## CC1COc2c(N3CCN(C)CC3)c(F)cc3c(=O)c(C(=O)O)cn1c23 (racemic) [Ofloxacin, ofloxacin, reference compound]
E. coli KC-14 [1]; [6]
  ED50: 0.8 mg/kg
S. marcescens IFO 3736; Test 2, S. Marcescens IFO 3736
  MIC: 0.39 µg/mL (≈ 1.08 µM)
B. subtilis ATCC 6633; Test 2
  MIC: 0.2 µg/mL (≈ 0.553 µM)
P. aeruginosa E-2 [2]; [7]
  ED50: 16 mg/kg
Proteus mirabilis 181
  MIC: 0.1 µg/mL (≈ 0.277 µM)
P. aeruginosa E-2 [3]; Test 2
  MIC: 1.56 µg/mL (≈ 4.32 µM)
S. aureus 209-P JC; Test 2
  MIC: 0.78 µg/mL (≈ 2.16 µM)
M. luteus ATCC 9341; Test 2, M. luteus ATTC 9341
  MIC: 3.13 µg/mL (≈ 8.66 µM)
[4]
  activity against infections caused by Gram positive bacteria and Pseudomonas aeruginosa (chronic): not active
E. coli NIHJ JC-2; Test 2
  MIC: 0.05 µg/mL (≈ 0.138 µM)
S. epidermidis
  MIC: 1.56 µg/mL (≈ 4.32 µM)
K. pneumoniae K-1966; Test 2
  MIC: 0.1 µg/mL (≈ 0.277 µM)
S. flexneri; Test 2, inoculum 10^6, 37° C.
  MIC: 0.1 µg/mL (≈ 0.277 µM)

## CCn1cc(C(=O)O)c(=O)c2cc(F)c(N3CCNCC3)nc21 [Enoxacin, enoxacin, reference compound]
E. coli KC-14 [1]; [6]
  ED50: 1.8 mg/kg
S. marcescens IFO 3736; Test 1, S. marcescens IFO 3736
  MIC: 0.39 µg/mL (≈ 1.22 µM)
B. subtilis ATCC 6633; Test 1
  MIC: 0.2 µg/mL (≈ 0.624 µM)
P. aeruginosa E-2 [2]; [7]
  ED50: 13.1 mg/kg
A. calcoaceticus 54
  MIC: 1.56 µg/mL (≈ 4.87 µM)
E. coli KC-14 [5]
  MIC: 0.1 µg/mL (≈ 0.312 µM)
P. aeruginosa E-2 [3]; Test 1
  MIC: 0.78 µg/mL (≈ 2.44 µM)
S. aureus 209-P JC; Test 1
  MIC: 0.78 µg/mL (≈ 2.44 µM)
M. luteus ATCC 9341; Test 1, M. luteus ATCC 9341
  MIC: 25 µg/mL (≈ 78 µM)
P. vulgaris HX-19
  MIC: 0.05 µg/mL (≈ 0.156 µM)
[4]
  activity against infections caused by Gram positive bacteria and Pseudomonas aeruginosa (chronic): not active
E. coli NIHJ JC-2; Test 1
  MIC: 0.2 µg/mL (≈ 0.624 µM)
K. pneumoniae K-1966; Test 1
  MIC: 0.2 µg/mL (≈ 0.624 µM)
S. aureus Smith
  MIC: 0.78 µg/mL (≈ 2.44 µM)
E. cloacae No. 1
  MIC: 0.1 µg/mL (≈ 0.312 µM)
S. flexneri; Test 1, inoculum 10^6, 37° C.
  MIC: 0.1 µg/mL (≈ 0.312 µM)

## CC1Sc2c(C(=O)O)c(=O)c3cc(F)c(N4CCN(C)CC4)cc3n21 (stereo not drawn) [Table 1 (2), 6-Fluoro-1-methyl-7-(4-methyl-1-piperazinyl)-4-oxo-4H-(1,3)thiazeto(3,2-a)quinoline-3-carboxylic acid]
In vivo
  LD50 at 336 h: ≥ 3000 mg/kg

## CC1Sc2c(C(=O)O)c(=O)c3cc(F)c(N4CCN(C)CC4)cc3n21.O=S(=O)(O)O (stereo not drawn) [Table 1 (5), 6-Fluoro-1-methyl-7-(4-methyl-1-piperazinyl)-4-oxo-4H-(1,3)thiazeto(3,2-a)quinoline-3-carboxylic acid sulfate]
E. coli KC-14 [1]
  ED50: 0.5 mg/kg
P. aeruginosa E-2 [2]
  ED50: 4 mg/kg

## CCOC(=O)c1c2n(c3cc(N4CCN(C)C(C)C4)c(F)cc3c1=O)C(C)S2 (stereo not drawn) [Table 2 (3), Ethyl 7-(3,4-dimethyl-1-piperazinyl)-6-fluoro-1-methyl-4-oxo-4H-(1,3)thiazeto(3,2-a)quinoline-3-carboxylate]
In vivo
  LD50 at 336 h: ≥ 3000 mg/kg

## CCOC(=O)c1c2n(c3cc(N4CCN(CC(C)=O)CC4)c(F)cc3c1=O)C(C)S2 (stereo not drawn) [Table 2 (5), Ethyl 7-(4-acetonyl-1-piperazinyl)-6-fluoro-1-methyl-4-oxo-4H-(1,3)thiazeto(3,2-a)quinoline-3-carboxylate]
In vivo
  LD50 at 336 h: ≥ 3000 mg/kg

## CC(=O)CN1CCN(c2cc3c(cc2F)c(=O)c(C(=O)O)c2n3C(C)S2)CC1 (stereo not drawn) [Table 2 (6), 7-(4-Acetonyl-1-piperazinyl)-6-fluoro-1-methyl-4-oxo-4H-(1,3)thiazeto(3,2-a)quinoline-3-carboxylic acid]
E. coli KC-14 [1]; [6]
  ED50: 0.6 mg/kg
P. aeruginosa E-2 [2]; [7]
  ED50: 5 mg/kg
